In patent publication EP1614683B1, “Indazole compounds and pharmaceutical compositions for inhibiting protein kinases, and methods for their use” (priority 1999, dated 2001):
Read-outs that look alike come from different tables or passages of the source.

Columns and labels:
[1] = molecular target: T1, human CHK1 (FL-CHK1) (Homo sapiens, UniProt O14757); test: CHK1 coupled spectrophotometric assay; type: biochemical; conditions: for inhibition at 1 µM: read-out: CHK1* (% inhibition); for inhibition at 50 µM: read-out: CHK-1* (% inhibition @ 50 µM)
T1 construct: C-terminally His-tagged full-length human CHK1 (FL-CHK1) was expressed using the baculovirus/insect cell system; made in house; host or cells: baculovirus/insect cell system
T1 sequence (O14757 1-476): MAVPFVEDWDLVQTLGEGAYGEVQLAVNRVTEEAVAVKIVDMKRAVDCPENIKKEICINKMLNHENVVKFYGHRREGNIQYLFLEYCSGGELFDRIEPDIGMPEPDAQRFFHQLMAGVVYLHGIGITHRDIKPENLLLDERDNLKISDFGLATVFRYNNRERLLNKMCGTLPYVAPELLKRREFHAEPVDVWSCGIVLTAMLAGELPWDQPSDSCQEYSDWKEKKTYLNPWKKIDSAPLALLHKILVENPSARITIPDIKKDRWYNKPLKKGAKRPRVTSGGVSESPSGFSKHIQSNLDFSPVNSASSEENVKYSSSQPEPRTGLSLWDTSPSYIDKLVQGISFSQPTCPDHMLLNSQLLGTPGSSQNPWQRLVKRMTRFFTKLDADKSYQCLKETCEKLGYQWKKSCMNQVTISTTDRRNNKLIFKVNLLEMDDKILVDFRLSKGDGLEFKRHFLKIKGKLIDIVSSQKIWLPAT
From the text: CHK1 Construct for Assay: C-terminally His-tagged full-length human CHK1 (FL-CHK1) was expressed using the baculovirus/insect cell system. […] The protein was purified by conventional chromatographic techniques.
The production of ADP from ATP that accompanies phosphoryl transfer to the synthetic substrate peptide Syntide-2 ([…]) was coupled to oxidation of NADH using phosphoenolpyruvate (PEP) through the actions of pyruvate kinase (PK) and lactic dehydrogenase (LDH). The oxidation of NADH was monitored by following the decrease of absorbance at 340 nm (∈340 = 6.22 cm^-1 mM^-1) using a HP8452 spectrophotometer. […] Assays were initiated with 10 nM of FL-CHK1. Ki values were determined by measuring initial enzyme activity in the presence of varying concentrations of test compounds. The data were analyzed using Enzyme Kinetic and Kaleidagraph software.

[2] = molecular target: T2, phosphorylated Tie-2 (aa 775-1122) (Homo sapiens, UniProt Q02763); test: TIE-2 spectrophotometric assay; type: biochemical; conditions: for inhibition at 1 µM: read-out: % Inhibition @ 1 µM Tie2-P; for inhibition at 10 µM: read-out: % Inhibition Tie2-P, compound tested at 10 µM
T2 construct: 4 to 12 nM phosphorylated Tie-2 (aa 775-1122); made in house; host or cells: insect cells
T2 sequence (Q02763 775-1122): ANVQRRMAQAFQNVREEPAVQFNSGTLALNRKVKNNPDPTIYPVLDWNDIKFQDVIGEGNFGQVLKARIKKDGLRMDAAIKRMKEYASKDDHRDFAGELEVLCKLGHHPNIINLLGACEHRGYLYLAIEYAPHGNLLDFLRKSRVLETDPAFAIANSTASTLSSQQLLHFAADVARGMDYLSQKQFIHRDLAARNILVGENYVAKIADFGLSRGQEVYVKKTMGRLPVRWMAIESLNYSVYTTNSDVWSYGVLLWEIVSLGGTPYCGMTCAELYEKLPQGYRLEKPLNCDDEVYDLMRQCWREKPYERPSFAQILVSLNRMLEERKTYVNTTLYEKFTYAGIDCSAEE
Procedure: This construct also carries a R774M mutation, which serves as the initiating methionine residue in translation.
The kinase-catalyzed production of ADP from ATP that accompanies phosphoryl transfer to the random copolymer poly(Glu4 Tyr) was coupled to the oxidation of NADH through the activities of pyruvate kinase (PK) and lactate dehydrogenase (LDH). NADH conversion to NAD* was monitored by the decrease in absorbance at 340 nm (ε = 6.22 cm^-1mM^-1) using a Beckman DU650 spectrophotometer. Typical reaction solutions contained 1 mM phosphoenolpyruvate, 0.24 mM NADH, 40 mM MgCl2, 5 mM DTT, 2.9 mg/mL poly(Glu4Tyr), 0.5 mM ATP, 15 units/mL PK, 15 units/mL LDH in 100 mM HEPES, pH 7.5. […]

[3] = system: human umbilical vein endothelial cells (HUVEC); test: HUVEC proliferation assay (VEGF-stimulated, MTT); type: cell-based; conditions: Homo sapiens, HUVEC, Table 1
[4] = molecular target: human FGF-R1 (Homo sapiens, UniProt P11362, C488A/C584S/L457V); test: FGF-R spectrophotometric assay; type: biochemical
human FGF-R1, sequence (P11362 456-766 L457V/C488A/C584S): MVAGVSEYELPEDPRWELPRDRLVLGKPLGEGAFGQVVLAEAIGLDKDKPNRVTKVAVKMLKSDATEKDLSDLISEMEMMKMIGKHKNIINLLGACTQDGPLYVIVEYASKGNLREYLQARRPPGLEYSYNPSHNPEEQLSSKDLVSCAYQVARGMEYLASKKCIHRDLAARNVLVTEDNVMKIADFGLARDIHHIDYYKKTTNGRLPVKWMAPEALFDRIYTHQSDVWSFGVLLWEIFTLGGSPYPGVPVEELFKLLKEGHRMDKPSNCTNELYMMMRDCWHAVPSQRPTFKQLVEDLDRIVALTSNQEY
Procedure: The spectrophotometric assay was carried out as described above for VEGF-R2, except for the following changes in concentration: FGF-R = 50 nM, ATP = 2 mM, and poly(E4Y1) =15 mM.

[5] = molecular target: LCK tyrosine kinase (Homo sapiens, UniProt P06239, C224D/P223M); test: LCK spectrophotometric assay; type: biochemical
LCK tyrosine kinase, sequence (P06239 223-509 P223M/C224D): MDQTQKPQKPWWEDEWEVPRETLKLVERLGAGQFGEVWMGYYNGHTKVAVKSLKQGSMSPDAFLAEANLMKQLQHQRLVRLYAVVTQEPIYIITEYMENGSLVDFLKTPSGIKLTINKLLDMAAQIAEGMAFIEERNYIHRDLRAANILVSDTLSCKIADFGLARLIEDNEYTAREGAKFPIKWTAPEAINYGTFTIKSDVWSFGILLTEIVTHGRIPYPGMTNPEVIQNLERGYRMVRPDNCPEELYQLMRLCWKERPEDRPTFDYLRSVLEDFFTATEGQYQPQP
Procedure: The spectrophotometric assay was carried out as described above for VEGF-R2, except for the following changes in concentration: LCK = 60 nM, MgCl2 = 0 mM, poly(E4Y1) = 20 mM.

[6] = Table 5, 1 µM, bold values spectrophotometric assay, non-bolded DELFIA assay (bold not visible here)
[7] = + albumin, read-out: HUVEC + albumin IC50
[8] = Table 1, compound concentration 1 µM, read-out: FGF-P* (% inhibition)
[9] = Table 1, compound concentration 1 µM, read-out: Lck-P* (% inhibition)

`Brc1cccc(Oc2ccc3c(/C=C/c4ccccc4)n[nH]c3c2)c1` [8(d), 6-(3-Bromo-phenoxy)-3-styryl-1H-indaxole] was tested, and the Ki ([1]; Table 1, read-out: CHK -1* (Ki)) was 82 nM and the inhibition at 1 µM [2] was 10%.
For `Oc1ccc(Oc2ccc3c(/C=C/c4ccccc4)n[nH]c3c2)cc1` [9(b), 3-(E-styryl)-6-[4-hydroxyphenoxy]-1H-indazole], the inhibition at 10 µM [2] was 88%.
`CN(c1cccc(NC(=O)OCc2ccccc2)c1)c1ccc2c(/C=C/c3ccccc3)n[nH]c2c1` [12(c), {3-[Methyl-(3-styryl-1H-indazol-6-yl)-amino]-phenyl}-carbamic acid benzyl ester] gave an inhibition at 1 µM [2, 6] of 17%.
In the case of `Cc1cccc(C(=O)Nc2cccc(N(C)c3ccc4c(/C=C/c5ccc6c(c5)OCO6)n[nH]c4c3)c2)c1` [16(b), N-(3-{[3-(2-Benzo[1,3]dioxol-5-yl-vinyl)-1H-indazol-6-yl]-methyl-amino}-phenyl)-3-methyl-benzamide], the IC50 [3, 7] is reported as 140 nM, the IC50 ([3]; read-out: HUVEC IC50) is reported as 4.7 nM and the inhibition at 1 µM [4, 8] is reported as 73%. For the same molecule, the inhibition at 1 µM [5, 9] was 22% and the inhibition at 1 µM [2, 6] was 52%.
In the case of `CC(=O)Nc1cccc(C(=O)c2ccc3c(/C=C/c4ccccc4)n[nH]c3c2)c1` [19(a), N-[3-(3-Styryl-1H-indazole-6-carbonyl)-phenyl]-acetamide], the IC50 ([3]; read-out: HUVEC IC50) is reported as 44 nM, the inhibition at 1 µM [4, 8] is reported as 92% and the inhibition at 1 µM [5, 9] is reported as 16%. For the same molecule, the inhibition at 1 µM [2, 6] was 18%.
With `Cc1cnc(C(=O)Nc2cccc(C(=O)c3ccc4c(/C=C/c5ccccc5)n[nH]c4c3)c2)s1` [19(d), 5-Methyl-thiazole-2-carboxylic acid [3-(3-styryl-1H-indazole-6-carbonyl)-phenyl]-amide] the IC50 [3, 7] was 34 nM, the IC50 ([3]; read-out: HUVEC IC50) was 6.8 nM and the inhibition at 1 µM [4, 8] was 39%. For the same molecule, the inhibition at 1 µM [5, 9] was 33% and the inhibition at 1 µM [2, 6] was 15%.
`C=C(c1cccc(NC(=O)c2ncc(C)s2)c1)c1ccc2c(/C=C/c3ccccc3)n[nH]c2c1` [22(a), 6-(1-(3-(5-Methyl-thiaxole-2-carboxoylamido)phenyl)-vinyl)-3-styryl-1H-indazole] gave an IC50 ([3]; read-out: HUVEC IC50) of 12 nM and an inhibition at 1 µM [2, 6] of 8%.
`COc1cc(-c2ccc3c(-c4nc5ccccc5[nH]4)n[nH]c3c2)c(C)cc1O` [24(a), 4-[3-(1-H-Benzoimidazol-2-yl)-1-H-indazol-6-yl]-2-methoxy-5-methyl-phenol] gave an inhibition at 1 µM ([4]; read-out: FGF* (% inhibition)) of 72%, an inhibition at 1 µM ([5]; read-out: Lck* (% inhibition)) of 67% and an inhibition at 10 µM [2] of 91%.
Work on `Cc1cc(O)ccc1-c1ccc2c(-c3nc4ccccc4[nH]3)n[nH]c2c1` [24(b), 4-[3-(1-H-Benzoimidazol-2-yl)-1-H-indazol-6-yl]-3-methylphenol] yielded an inhibition at 1 µM ([4]; read-out: FGF* (% inhibition)) of 88%, an inhibition at 1 µM ([5]; read-out: Lck* (% inhibition)) of 96% and an inhibition at 10 µM [2] of 92%.
With `Cc1cc(O)c(Cl)cc1-c1ccc2c(-c3nc4ccccc4[nH]3)n[nH]c2c1` [24(c), 4-[3-(1-H-Benzoimidazol-2-yl)-1-B-indazol-6-yl]-2-chloro-5-methyl-phenol] the inhibition at 1 µM ([4]; read-out: FGF* (% inhibition)) was 89%, the inhibition at 1 µM ([5]; read-out: Lck* (% inhibition)) was 93% and the inhibition at 1 µM [2] was 94%.
`C=C(c1ccccc1)c1ccc2c(/C=C/c3ccccc3)n[nH]c2c1` [Example 10, 6-(1-Phenyl-vinyl)-3-styryl-1H-indazole] was tested, and the IC50 ([3]; read-out: HUVEC IC50) was greater than 700 nM and the inhibition at 10 µM [2] was 20%.
`CN(c1cccc(N)c1)c1ccc2c(/C=C/c3ccccc3)n[nH]c2c1` [Example 11, N-Methyl-N-(3-styryl-1H-indazol-6-yl)-benzene-1,3-diamine] showed an inhibition at 1 µM [2, 6] of 40%.
In the case of `O=C(c1ccccc1)c1ccc2c(/C=C/c3ccccc3)n[nH]c2c1` [Example 17, Phenyl-(3-styryl-1H-indazol-6-yl)-methanone], the inhibition at 1 µM [2] is reported as 50%.
Work on `C=C(c1cccc(N)c1)c1ccc2c(/C=C/c3ccccc3)n[nH]c2c1` [Example 21, 6-(1-(3-Aminophenyl)-vinyl)-3-styryl-1H-indazole] yielded an IC50 ([3]; read-out: HUVEC IC50) greater than 700 nM and an inhibition at 1 µM [2, 6] of 27%.
`CSc1cc(O)ccc1-c1ccc2c(-c3nc4ccccc4[nH]3)n[nH]c2c1` [Reference Example 24(k), 3-1H-Benzoimidazol-2-yl-6.(2-methylsulfanyl-4-hydroxyphenyl}-1H-indazole] showed an inhibition at 1 µM [1] of 81% and an inhibition at 1 µM ([5]; read-out: Lck* (% inhibition)) of 89%.
Molecule `COc1cc(O)ccc1-c1ccc2c(-c3nc4ccncc4[nH]3)n[nH]c2c1` [Reference Example 25(a), 3-(3H-Imidazo[4,5-c]pyridin-2-yl)-6-(4-hydroxy-2-methoxyphenyl)-1H-indazole] has an inhibition at 1 µM ([4]; read-out: FGF* (% inhibition)) of 62%, an inhibition at 1 µM [1] of 49% and an inhibition at 1 µM ([5]; read-out: Lck* (% inhibition)) of 44%.
In the case of `COc1cc(O)ccc1-c1ccc2c(-c3nc4ccc(C(=O)NCCN5CCOCC5)cc4[nH]3)n[nH]c2c1` [Reference Example 25(b), 3-[6-(2-morpholin-4-yl-ethylcarbamoyl)-1H-benzoimidazol-2-yl]-6-(2-methoxy-4-hydroxyphenyl)-1H-indazole], the inhibition at 1 µM ([4]; read-out: FGF* (% inhibition)) is reported as 87%, the inhibition at 1 µM [1] is reported as 83% and the inhibition at 1 µM ([5]; read-out: Lck* (% inhibition)) is reported as 87%.
Molecule `COc1cc(O)ccc1-c1ccc2c(-c3nc4ccc(N5CCN(C)CC5)cc4[nH]3)n[nH]c2c1` [Reference Example 25(c), 3-[6-(4-methylpiperazin-1-yl)-1H-benzoimidazol-2-yl]-6-(2-methoxy-4-hydroxyphenyl)-1H-indazole] has an inhibition at 1 µM ([4]; read-out: FGF* (% inhibition)) of 96% and an inhibition at 1 µM [1] of 90%.
`COc1cc(O)ccc1-c1ccc2c(-c3nc4c(N5CCN(C)CC5)cccc4[nH]3)n[nH]c2c1` [Reference Example 25(d)] was tested, and the inhibition at 1 µM ([4]; read-out: FGF* (% inhibition)) was 80%, the inhibition at 1 µM [1] was 87% and the inhibition at 1 µM ([5]; read-out: Lck* (% inhibition)) was 60%.
Work on `COc1cc(O)ccc1-c1ccc2c(-c3ncc[nH]3)n[nH]c2c1` [Reference Example 25(e), 3-imidazol-2-yl-6-(2-methoxy-4-hydroxyphenyl)-1H-indazole] yielded an inhibition at 1 µM ([4]; read-out: FGF* (% inhibition)) of 26%, an inhibition at 1 µM [1] of 16% and an inhibition at 1 µM ([5]; read-out: Lck* (% inhibition)) of 13%.
`COc1cc(O)ccc1-c1ccc2c(-c3nc4cc(N(C)C)ccc4[nH]3)n[nH]c2c1` [Reference Example 25(h), 3-(5-Dimethylamino-1H-benzoimidazol-2-yl)-6-(2-methoxy-4-hydroxy-phenyl)-1H-indazole] was tested, and the inhibition at 1 µM ([4]; read-out: FGF* (% inhibition)) was 91%, the inhibition at 1 µM [1] was 86% and the inhibition at 1 µM ([5]; read-out: Lck* (% inhibition)) was 87%.
Molecule `COc1cccc(-c2ccc3c(/C=C/c4ccccc4)n[nH]c3c2)c1` [Reference Example 27(b)] has an inhibition at 50 µM [1] of 28%.
For `COc1ccc(-c2ccc3c(/C=C/c4ccccc4)n[nH]c3c2)cc1` [Reference Example 27(c)], the inhibition at 5 µM ([1]; read-out: CHK-1* (% inhibition @ 5 µM)) was 11%.
`C(=C\c1n[nH]c2cc(-c3cccc4ccccc34)ccc12)/c1ccccc1` [Reference Example 27(d)] showed an inhibition at 10 µM ([1]; read-out: CHK-1* (% inhibition @ 10 µM)) of 14%.
`COc1ccc(-c2ccc3c(/C=C/c4ccccc4)n[nH]c3c2)cc1OC` [Reference Example 27(j)] gave an inhibition at 50 µM [1] of 15%.
For `Clc1cccc(Cl)c1/C=C/c1n[nH]c2cc(-c3ccncc3)ccc12` [Reference Example 29(a), 6-pyrid-4-yl-3-E-[2-(2,6-dichlorophenyl)ethenyl]-1H-indazole], the “CHK-1* (inhibition @ 25 µM)” value ([1]; Table 3, @ 25µM, NI = no significant inhibition) was “Nl @ 25µM”.
`Fc1ccc(F)c(/C=C/c2n[nH]c3cc(-c4ccncc4)ccc23)c1` [Reference Example 29(s), 6-pyrid-4-yl-3-E-[2-(2,5-difluorophenyl)ethenyl]-1H-indazole] gave a Ki ([1]; read-out: CHK-1* (Ki), Table 3) of 11000 nM.
